Results on two molecules are retold here after US20190029987A1, “DIMETHYL FUMARATE (DMF) FOR PREVENTION OR TREATMENT OF GOUT, ACNE, DIABETES, VITILIGO AND/OR PYODERMA GANGRENOSUM” (UNIVERSITAT ZURICH, priority 2016, published 2019).

In experiment [1] the test system is NLRP3 inflammasome. The experiment can be described thus: UVB irradiation-induced inflammasome activation in HPKs (IL-1β ELISA, Western blot). The following applies: for relative efficiency/potency of inflammasome inhibition between compounds: UVB, same concentrations; for relative efficiency/potency of inflammasome inhibition between compounds / inflammasome activation (processed caspase-1, mature IL-1β and -18 in the supernatant): FIG. 2A, 8A-C; for inflammasome activation (processed caspase-1, mature IL-1β and -18 in the supernatant): different doses, UVB 30 min later, harvested after 5 h. Format: cell-based, human. The text has this:
To determine the effects of Nrf2 activating compounds on inflammasome activation, the inventors treated keratinocytes with different doses of SFN, tBHQ, DMF or 15d-PGJ2 and irradiated the cells with UVB.
SFN, DMF, 15d-PGJ2, tBHQ, zymosan, ATP, poly(dA:dT), cycloheximide, puromycin, and doxycycline were purchased from Sigma (Munich, Germany), nigericin from Enzo Life Sciences (New York, US-NY), MG132 from Calbiochem (Darmstadt, Germany), and blasticidin from Invivogen (Toulouse, France). Release of IL-1p was determined by ELISA according the instructions of the manufacturer (R&D Systems, Minneapolis, US-MN). MSU crystals were prepared by crystallisation of a supersaturated solution of uric acid under mildly basic conditions. Briefly, uric acid was added to a solution of NaOH, the solution was boiled until the uric acid was dissolved and passed through a filter. NaCl was added and crystallisation was performed at 4° C. Crystals were filtered, then dried using a speedvac, weighted and autoclaved.
(A) HPKs were treated with the indicated concentrations of the Nrf2 activating compound tBHQ irradiated with UVB 30 min later and harvested after 5 h. ELISA measurements were performed for quantification of IL-1β secretion and Western blots for analysis of expression and activation of the indicated proteins. Specific bands are marked with an asterisk. (B) THP-1 cells were differentiated with PMA (27 nM) for 3 d, primed with upLPS (100 ng/ml) overnight, and 1 h before inflammasome activation (5 μM nigericin, 150 μg/ml MSU) treated with SFN (10 μM), 15-PGJ2 (10 μM) or DMF (50 μM) (15-PG: 15-PGJ2). Cells and supernatants were harvested after 5 h and analysed for inflammasome activation by ELISA measurement of IL-1p and Western blots as indicated. (C) Freshly isolated PBMCs from human blood were primed overnight with upLPS (100 ng/ml) and treated with SFN (10 μM), tBHQ (10 μM), DMF (50 μM) or 15-PGJ2 (10 μM) 1 h before inflammasome activation by nigericin (5 μM). ELISA measurement for secretion of IL-1β as readout for inflammasome activation was performed after 5 h. (D) HPKs or (E) differentiated and primed THP-1 cells were pretreated with cycloheximide (CHX, 30 μg/ml) to block protein synthesis for 1 h before SFN (10 μM) was added to the cells and after an additional hour the inflammasome was activated by (D) irradiation with UVB or (E) treatment with nigericin (5 μM). Cells and supernatants were harvested after (D) 6 h or (E) 3.5 h and analysed for inflammasome activation by Western blot as indicated. (A-E) Representative experiments performed at least three times are shown. Statistics: (A-C) Error bars represent the mean±SD of a representative experiment performed in triplicates. One-way ANOVA was performed. **P≤0.01; ***P≤0.001.
FIG. 8: (A-C) HPKs were treated with the Nrf2 activating compounds (A) SFN, (B) DMF, and (C) 15d-PGJ2, irradiated with UVB 30 min later and harvested after 5 h. Analogous experiment as described in FIG. 2A for tBHQ. (D) THP-1 cells were differentiated with TPA for 3 d and primed with LPS overnight. Then, cells were treated with the solvent DMSO, SFN (10 μM) or 15-PGJ2 (10 μM). After 30 min the inflammasome was activated by nigericin treatment and cells and supernatants were harvested after 2.5 h. Western blots showing prolL-1β and mature IL-1p in the lysate and supernatant. 20% lysate and supernatant of a 12 well was used, respectively, in order to allow a comparison. IL-1β was quantified in the supernatant by ELISA and cytotoxicity by LDH release.

The target of experiment [2] is NLRP3 inflammasome (Mus musculus, UniProt Q8R4B8). As to conditions: BMDCs from wt and Nrf2 knockout mice, 10 μM 1 h before 5 μM nigericin, 4.5 h, FIG. 5D,E.
Description: To address this possibility, the inventors treated BMDCs from wild-type and Nrf2 knockout mice with SFN or vehicle (FIG. 5 D, E).
(D, E) DCs were differentiated from the bone marrow of wt and Nrf2 knockout mice (n=4), primed overnight with upLPS and treated with the solvent DMSO (ctrl) or SFN (10 μM). After 1 h, BMDCs were treated with 5 μM nigericin and harvested 4.5 h later. (D) Western blots for expression and activation of the indicated proteins and (E) ELISA for quantification of secretion of IL-1p. […] IL-1β secretion was determined by ELISA. […] (A-E) Representative experiments performed at least three times are shown. (E) Error bars represent the mean±SD of a representative experiment performed in triplicates.
The test system of experiment [3] is Monosodium urate (MSU) crystal-induced peritonitis. The experiment is described as follows: MSU crystal-induced peritonitis mouse model (neutrophils in peritoneal lavage). Type of experiment: in vivo. As to conditions: mice, oral gavage 25 mg/kg in PBS for two days, 6 h post 2 mg MSU crystals, vs control mice, FIG. 3B.
Description: (§1) Monosodium urate (MSU) crystal-induced peritonitis is a mouse model of inflammation and gout, which is dependent on IL-1, IL-1R1, MyD88 and the NLRP3 inflammasome. […] The inventors chose a different way of administration and supplied mice with SFN or DMF by oral gavage to determine a potential anti-inflammatory activity of the Nrf2 activators in vivo (FIG. 3). […] The inventors analysed the cellular infiltrate in the peritoneum 6 h post injection of MSU crystals.
Mice were challenged with 2 mg of MSU crystals for 6 hours as previously described (Chen et a Olin Invest 2006. 116: 2262-2271).
Mice treated by gavage with (A, B, C) SFN (25 mg/kg) in PBS or (D, E, F) DMF (20 mg/kg) in H2O containing 0.08% methocel and 10% DMSO, vehicle-treated mice served as control. Regime for (A) SFN or (D) DMF treatment. Peritonitis was induced by peritoneal injection of 2 mg MSU crystals, (B, E) After 6 h the number of neutrophils of the peritoneal lavage was determined by flow cytornetry. […] Statistics: Student's t-test. (B, C) n≥3, (E, F) n=7. *P≤0.05; **P≤0.01
Experiment [4] concerns the target caspase-1 / Rbx1 interaction (Homo sapiens, UniProt P29466). As to conditions: HPKs, 50 μM, harvested 1 h later, FIG. 5C.
Description: To address this point, the inventors performed co-immunoprecipitation (co-IP) experiments with an antibody for caspase-1 and lysates of HPKs. […] In addition, the inventors overexpressed a FLAG-tagged version of caspase-1 in HPKs and precipitated the protease with an ANTI-FLAG M2 Affinity Gel (FIG. 5B).
Co-immunoprecipitation (co-IP) was performed with lysates of HPKs as described (Sollberger et al., J Immunol 2012. 188: 1992-2000). Briefly, HPKs were grown in 10 cm dishes, transfected with siRNA (scr or siRNA targeting Rbx1), and propagated to 80% confluency (3 days), Four dishes were harvested in 150 μl co-IP buffer with complete proteinase inhibitor (Roche, Rotkreuz, Switzerland), respectively. After treatment in a douncer, the lysates were centrifuged (20 min, 17 000×g). The supernatant was diluted 1: 1 with co-IP buffer and incubated with 20 μg antibody (caspase-1 or HA). After centrifugation, 150 μl (50 mg/ml) protein A Sepharose (GE Healthcare, Little Chalfront, UK) was added. After 90 min, the beads were washed four times with co-IP buffer and resuspended in 100 μl 2×loading SDS buffer. Alternatively, co-immunoprecipitation was performed using an ANTI-FLAG® M2 Affinity Gel (Sigma). HPKs were grown in 10 cm dishes and transduced with lentiviral constructs encoding FLAG-tagged caspase-1 or GFP as described above. […]
Experiment [5] concerns ASC. As to conditions: THP1, 10 μM, nigericin 5 μM for 2.5 h, FIG. 5F.
Description: In order to analyse, at which level SFN blocks inflammasome activation, the inventors determined the formation of ASC specks in SFN-treated and inflammasome activated THP1 cells (FIG. 5F). Formation of ASC specks is an upstream event of inflammasome activation.
ASC specks were analysed as described (Nara et al., Nat Immunol 2013. 14: 1247-1255),
(F) THP1 cells (3 d differentiated with TPA, overnight primed with LPS) were stimulated with SFN (10 μM) or the solvent DMSO and mock-treated or with nigericin (5 μM) for 2.5 h. Lysates were harvested in Triton buffer and analysed for soluble and insoluble (indicating speck formation) ASC or in DSS-containing buffer for detection of ASC monomers, dimers and oligomers by Western blotting. IL-1β secretion was determined by ELISA.
Experiment [6] deals with Nrf2 target genes Gstp1, Nqo1 and Srxn1. The experiment is described as follows: Nrf2 target gene expression in liver of treated mice (qRT-PCR). Type of experiment: in vivo, mouse. As to conditions: oral gavage 25 mg/kg, FIG. 3C. In general terms: In qPCR the cycle at which signal appears reflects the starting amount.
Description: as §1
qRT-PCR was performed with the LightCycler 480 SYBR Green Master or the FastStart Universal SYBR Green Master (both Roche, Rotkreuz, Switzerland) using total cellular RNA. Specific primer pairs (Supplementary Table 2) were designed to generate an approximately 150 bp fragment flanking an intron-exon border of the corresponding gene. […]
Mice treated by gavage with (A, B, C) SFN (25 mg/kg) in PBS or (D, E, F) DMF (20 mg/kg) in H2O containing 0.08% methocel and 10% DMSO, vehicle-treated mice served as control. […] Peritonitis was induced by peritoneal injection of 2 mg MSU crystals, (B, E) After 6 h the number of neutrophils of the peritoneal lavage was determined by flow cytornetry. (C, F) At the same time, the liver was isolated and analysed for the expression of the Nrf2 target genes Gstp1, Nqo1 and Srxn1 by qRT-PCR. […]

Chain of NLRP3 inflammasome (Mus musculus, UniProt Q8R4B8) (Q8R4B8 whole entry): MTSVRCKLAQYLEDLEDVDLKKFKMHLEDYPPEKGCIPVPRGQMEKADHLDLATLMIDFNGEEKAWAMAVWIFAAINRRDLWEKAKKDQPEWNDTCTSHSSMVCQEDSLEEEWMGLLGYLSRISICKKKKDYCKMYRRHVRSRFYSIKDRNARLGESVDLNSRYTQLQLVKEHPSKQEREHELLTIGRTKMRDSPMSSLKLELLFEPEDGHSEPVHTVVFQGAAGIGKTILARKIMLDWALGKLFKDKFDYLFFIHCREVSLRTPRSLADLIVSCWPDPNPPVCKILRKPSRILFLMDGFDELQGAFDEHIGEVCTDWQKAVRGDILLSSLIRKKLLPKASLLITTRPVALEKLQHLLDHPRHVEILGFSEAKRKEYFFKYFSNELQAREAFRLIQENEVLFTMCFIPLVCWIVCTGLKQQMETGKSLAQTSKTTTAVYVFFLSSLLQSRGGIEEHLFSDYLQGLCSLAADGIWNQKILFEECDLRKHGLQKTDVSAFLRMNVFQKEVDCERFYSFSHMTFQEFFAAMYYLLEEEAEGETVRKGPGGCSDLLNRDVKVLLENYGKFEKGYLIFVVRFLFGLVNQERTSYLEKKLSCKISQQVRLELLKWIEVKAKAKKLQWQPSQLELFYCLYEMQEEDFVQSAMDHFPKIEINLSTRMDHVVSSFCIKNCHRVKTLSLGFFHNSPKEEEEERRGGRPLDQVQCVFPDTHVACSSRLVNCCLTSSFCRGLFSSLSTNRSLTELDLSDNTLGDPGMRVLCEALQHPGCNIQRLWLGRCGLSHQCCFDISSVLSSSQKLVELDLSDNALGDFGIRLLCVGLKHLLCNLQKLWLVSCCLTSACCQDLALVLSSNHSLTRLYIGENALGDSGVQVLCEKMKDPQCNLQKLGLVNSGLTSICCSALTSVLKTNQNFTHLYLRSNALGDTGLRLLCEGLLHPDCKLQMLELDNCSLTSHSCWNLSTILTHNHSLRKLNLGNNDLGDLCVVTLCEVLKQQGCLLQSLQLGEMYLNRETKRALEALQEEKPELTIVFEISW
Chain of caspase-1 / Rbx1 interaction (P29466 120-404): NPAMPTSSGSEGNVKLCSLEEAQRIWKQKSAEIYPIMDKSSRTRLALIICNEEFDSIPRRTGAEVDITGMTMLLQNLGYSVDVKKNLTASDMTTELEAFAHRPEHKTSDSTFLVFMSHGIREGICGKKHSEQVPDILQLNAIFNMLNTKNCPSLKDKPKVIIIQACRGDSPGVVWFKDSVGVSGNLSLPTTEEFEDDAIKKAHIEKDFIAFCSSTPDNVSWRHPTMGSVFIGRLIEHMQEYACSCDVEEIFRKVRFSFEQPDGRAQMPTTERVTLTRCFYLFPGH

`CCCCCC=CC=C1C(=O)C=CC1CC=CCCCC(=O)O` [15d-PGJ2, 15-deoxy-D-prostaglandin J2]: in experiment [1], the “relative efficiency/potency of inflammasome inhibition between compounds” value is “much more efficient than tBHQ and DMF”; the “inflammasome activation (processed caspase-1, mature IL-1β and -18 in the supernatant)” value is listed as “inhibited inflammasome activation in a dose-dependent manner”.

For `C[S+]([O-])CCCCN=C=S` (stereo not shown) [SFN, sulforaphane], in experiment [1] (CHX 30 μg/ml 1 h before SFN 10 μM, UVB 1 h later, 6 h, FIG. 2D), the “inflammasome inhibition by SFN with protein synthesis blocked by cycloheximide” value is reported as “did not prevent inflammasome inhibition”. In experiment [1], the “relative efficiency/potency of inflammasome inhibition between compounds” value was “much more efficient than tBHQ and DMF”; the “inflammasome activation (processed caspase-1, mature IL-1β and -18 in the supernatant)” value is “inhibited inflammasome activation in a dose-dependent manner”. The “secretion of IL-1β” value in experiment [2] is “completely abolished secretion of the cytokine independently of Nrf2 expression”. Further, in experiment [3], the “number of neutrophils in the peritoneum” value is given as “significantly reduced”. Also, the “interaction between caspase-1 and Rbx1 (co-IP)” value in experiment [4] was “did not prevent the interaction between caspase-1 and Rbx1”. Further, the “ASC speck formation / oligomerization” value in experiment [5] is recorded as “prevented oligomerization of the adaptor protein”. In addition, in experiment [6], the “expression of Nrf2 target genes in the liver” value is “increased mRNA expression”.
